Assay results as given in patent US20070270429A1, “Function Inhibitor of Effector Cell” (priority 2003, published 2007).

Test system: human CD4-positive Th1 differentiation cell
Test: Cell growth inhibition test of human CD4-positive Th1 differentiation cell (anti-CD3 antibody stimulation, BrdU uptake)
Assay type: cell-based
Experimental: After treating the cells with BrdU for a predetermined period of time, the plate was centrifuged (300×g, 10 minutes), and then turned upside down and lightly shaken to remove the labeled medium. The plate was dried (for about 15 minutes) using a hair dryer. A cell fixing and DNA denaturing solution (200 μl, attached to the kit) was added to each well and left alone for 30 minutes. After removing the cell fixing and DNA denaturing solution and further removing water, a peroxidase-labeled anti-BrdU antibody (anti-BrdU-POD reaction solution) (100 μl) (attached to the kit) was added thereto and left alone at room temperature for 90 minutes. The antibody solution was discarded, each well was washed three times with PBS (200 μl), water was discarded, and then the substrate solution (100 μl) (attached to the kit) was added thereto. After carrying out the enzyme reaction for a period of 5 to 30 minutes, 1 N sulfuric acid solution (25 μl) was added thereto and stirred on a shaker. The absorbance of samples was measured by a microplate reader (SPECTRAMAX-PRO) at 450 nm (control wavelength: 690 nm).
The cells fractionated by the method described in the above-described (2-1) were inoculated into a 96 well plate coated with the anti-human CD3 antibody, at a cell density of 2×10^5 cells/100 μl/well, a medium (100 μl) containing 2 times concentration solution of each drug to be tested (contains 0.2% DMSO) was added thereto, and the cells were cultured for 48 hours in a CO2 incubator (5% CO2, humidity 95%) kept at 37° C. The BrdU uptake activity was measured by the method described in the above-described (2-4).
The cell growth inhibition activity of human CD8-positive memory T cell by the compounds of the […] was calculated as the inhibition ratio (%) in accordance with the following formula, in which the value of well to which the medium containing DMSO but not containing the drug to be tested was added was used as the control value (A), and the value of well to which the DMSO-containing medium containing the drug to be tested was added as the value (B). Inhibition ratio (%)=[(A−B)/A]×100 Results:
A heparinized blood sample was collected from a human, healthy volunteer, and peripheral blood mononuclear cell (PBMC) was isolated by the density gradient centrifugation described in the above-described (2-1). CD4-positive T cell was isolated from PBMC by a negative selection method using Human T Cell CD4 Subset Column Kit (R & D Systems, Inc). Specifically, the cells to be removed such as B cell, CD8-positive T cell, monocyte and the like were labeled with antibodies by adding an antibody cocktail (1 ml) (attached to the kit) to PBMC (up to 2×10^8 cells) and incubating at room temperature for 15 minutes. […]

SMILES	inhibition ratio of cell growth (0.1 μM) [%]	inhibition ratio of cell growth (10 μM) [%]
CCCCN1C(=O)[C@@H]([C@H](O)C2CCCCC2)NC(=O)C12CCN(Cc1ccc(Cc3ccc(C(=O)O)cc3OC)cc1)CC2 [Compound (b), 4-[4-({(3R)-1-butyl-3-[(R)-cyclohexyl(hydroxy)methyl]-2,5-dioxo-1,4,9-triazaspiro[5.5]undec-9-yl}methyl)benzyl]-3-methoxybenzoic acid]	−2.3	21.8
CCCCN1C(=O)[C@@H]([C@H](O)C2CCCCC2)NC(=O)C12CCN(Cc1ccc(Oc3ccc(C(=O)O)cc3OCC)cc1)CC2.Cl [Compound (c), 4-[4-({(3R)-1-butyl-3-[(R)-cyclohexyl(hydroxy)methyl]-2,5-dioxo-1,4,9-triazaspiro[5.5]undec-9-yl}methyl)phenoxy]-3-ethoxybenzoic acid hydrochloride]	48.3	47.7
